Experimental data as given in patent US9662372B2 (priority 2013, dated 2017).
Where no end group is shown, it is not given here. [ ]: non-standard residue; d: D form. βAla = NCCC(=O)O

Experiments:
C. difficile ATCC 9689 [1] = test: Bacterial mass in wells of PM panels (OD 750 nm); assay type: cell-based, Clostridium difficile; details: OD difference with vs without C. difficile, 72 h; nitrogen source (PM03/06/07/08)
C. difficile ATCC 9689 [2] = assay type: cell-based, Clostridium difficile
[3] = target: T1, Clostridium difficile Toxin B (Clostridioides difficile, UniProt P18177); test: Toxin B inactivation, CHO-k1 microwell dye reduction assay; assay type: cell-based; details: for Reduction of measured toxin B: at all tested concentrations, toxin B at high level
T1 construct: purchased List Biological Laboratory (Listlab, Campbell, Calif., USA)
T1 sequence (P18177 whole entry): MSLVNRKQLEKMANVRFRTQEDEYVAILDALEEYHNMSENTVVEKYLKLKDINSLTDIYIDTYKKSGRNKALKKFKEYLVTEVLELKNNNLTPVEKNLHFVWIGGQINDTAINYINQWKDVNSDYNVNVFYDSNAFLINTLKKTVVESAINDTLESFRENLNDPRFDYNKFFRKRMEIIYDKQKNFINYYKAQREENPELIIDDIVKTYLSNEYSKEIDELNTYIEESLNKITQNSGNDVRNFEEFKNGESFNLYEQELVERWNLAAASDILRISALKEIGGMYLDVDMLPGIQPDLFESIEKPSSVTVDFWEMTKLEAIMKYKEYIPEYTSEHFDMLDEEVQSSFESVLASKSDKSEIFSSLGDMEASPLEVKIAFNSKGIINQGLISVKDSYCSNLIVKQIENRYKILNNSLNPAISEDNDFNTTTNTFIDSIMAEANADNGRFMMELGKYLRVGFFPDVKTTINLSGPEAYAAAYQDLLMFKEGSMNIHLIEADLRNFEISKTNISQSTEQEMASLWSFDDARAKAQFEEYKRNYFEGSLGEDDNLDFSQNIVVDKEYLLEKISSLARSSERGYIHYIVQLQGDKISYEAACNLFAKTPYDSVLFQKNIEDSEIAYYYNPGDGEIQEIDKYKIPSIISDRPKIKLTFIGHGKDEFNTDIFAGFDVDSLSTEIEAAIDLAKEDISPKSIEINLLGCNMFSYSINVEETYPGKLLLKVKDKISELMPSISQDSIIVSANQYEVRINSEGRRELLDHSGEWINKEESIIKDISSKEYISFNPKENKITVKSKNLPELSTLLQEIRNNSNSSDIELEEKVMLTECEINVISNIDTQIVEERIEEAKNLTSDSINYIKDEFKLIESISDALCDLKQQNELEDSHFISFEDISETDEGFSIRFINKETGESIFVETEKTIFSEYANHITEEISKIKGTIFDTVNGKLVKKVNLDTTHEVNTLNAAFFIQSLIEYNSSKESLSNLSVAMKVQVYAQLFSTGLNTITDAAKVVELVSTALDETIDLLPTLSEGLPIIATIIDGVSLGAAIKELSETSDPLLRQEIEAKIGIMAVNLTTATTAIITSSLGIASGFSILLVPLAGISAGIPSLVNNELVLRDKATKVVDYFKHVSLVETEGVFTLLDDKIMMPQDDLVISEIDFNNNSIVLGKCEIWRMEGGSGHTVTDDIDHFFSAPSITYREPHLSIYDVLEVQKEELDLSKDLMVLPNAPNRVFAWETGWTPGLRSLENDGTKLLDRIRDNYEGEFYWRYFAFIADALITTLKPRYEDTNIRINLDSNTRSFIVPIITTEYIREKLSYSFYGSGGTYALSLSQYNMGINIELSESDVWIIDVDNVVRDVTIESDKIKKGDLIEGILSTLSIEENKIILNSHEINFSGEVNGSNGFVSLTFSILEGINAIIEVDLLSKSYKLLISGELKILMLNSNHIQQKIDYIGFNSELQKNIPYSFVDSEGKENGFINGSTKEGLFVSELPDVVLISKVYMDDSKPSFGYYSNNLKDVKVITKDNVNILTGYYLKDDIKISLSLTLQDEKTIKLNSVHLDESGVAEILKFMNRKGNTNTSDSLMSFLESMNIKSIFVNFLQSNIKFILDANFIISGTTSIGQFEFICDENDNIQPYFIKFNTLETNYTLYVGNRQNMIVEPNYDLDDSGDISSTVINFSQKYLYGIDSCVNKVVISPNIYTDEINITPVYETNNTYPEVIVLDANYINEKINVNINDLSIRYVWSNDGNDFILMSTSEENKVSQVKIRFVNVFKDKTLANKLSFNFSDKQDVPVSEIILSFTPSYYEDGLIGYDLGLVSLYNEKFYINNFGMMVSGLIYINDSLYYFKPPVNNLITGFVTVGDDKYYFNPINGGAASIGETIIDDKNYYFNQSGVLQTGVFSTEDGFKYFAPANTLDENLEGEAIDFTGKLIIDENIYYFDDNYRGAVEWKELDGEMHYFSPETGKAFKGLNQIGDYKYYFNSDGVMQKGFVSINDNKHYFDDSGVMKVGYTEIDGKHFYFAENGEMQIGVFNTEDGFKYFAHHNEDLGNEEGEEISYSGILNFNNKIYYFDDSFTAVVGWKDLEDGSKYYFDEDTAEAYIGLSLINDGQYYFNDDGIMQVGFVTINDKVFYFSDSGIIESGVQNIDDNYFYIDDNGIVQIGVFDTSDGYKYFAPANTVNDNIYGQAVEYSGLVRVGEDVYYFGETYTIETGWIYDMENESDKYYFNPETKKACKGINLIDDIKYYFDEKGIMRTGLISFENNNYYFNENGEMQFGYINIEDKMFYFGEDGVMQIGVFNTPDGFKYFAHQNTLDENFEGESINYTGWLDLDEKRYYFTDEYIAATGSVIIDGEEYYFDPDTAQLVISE

[4] = target: Clostridium difficile Toxin B (Clostridium difficile) (UniProt P18177)
[5] = tested on: crude toxin preparation from E. coli O157; assay type: cell-based, Escherichia coli O157
Shiga toxin 2 = Shiga toxin 2 (Escherichia phage 933W, UniProt P09385+P09386)
Sequence of Shiga toxin 2 (P09385 23-319 limits assumed): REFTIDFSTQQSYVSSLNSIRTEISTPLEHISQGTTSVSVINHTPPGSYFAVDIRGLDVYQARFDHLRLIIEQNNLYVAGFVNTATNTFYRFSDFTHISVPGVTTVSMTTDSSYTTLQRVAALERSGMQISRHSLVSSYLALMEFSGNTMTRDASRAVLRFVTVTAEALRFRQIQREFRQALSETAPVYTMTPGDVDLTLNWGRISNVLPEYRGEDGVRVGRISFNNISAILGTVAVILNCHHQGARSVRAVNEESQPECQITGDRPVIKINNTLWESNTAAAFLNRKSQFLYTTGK
Sequence of Shiga toxin 2 (P09386 20-89 limits assumed): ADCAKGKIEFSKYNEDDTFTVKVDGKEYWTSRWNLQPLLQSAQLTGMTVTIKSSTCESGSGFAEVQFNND

[6] = tested on: crude toxin preparation from C. perfringens; assay type: cell-based
[7] = tested on: crude toxin preparation from B. cerus; assay type: cell-based, Bacillus cereus
Shiga toxin 1 = Shiga toxin 1 (UniProt P08026+P69178)
Sequence of Shiga toxin 1 (P08026 23-315 limits assumed): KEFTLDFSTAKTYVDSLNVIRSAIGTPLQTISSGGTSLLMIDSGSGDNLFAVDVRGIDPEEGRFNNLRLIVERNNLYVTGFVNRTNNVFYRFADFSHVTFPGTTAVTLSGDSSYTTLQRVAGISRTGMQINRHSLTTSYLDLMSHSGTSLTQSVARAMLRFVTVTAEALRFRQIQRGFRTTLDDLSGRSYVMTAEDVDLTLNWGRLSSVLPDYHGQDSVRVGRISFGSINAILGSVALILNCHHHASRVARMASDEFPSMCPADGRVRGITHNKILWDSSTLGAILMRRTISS
Sequence of Shiga toxin 1 (P69178 21-89 limits assumed): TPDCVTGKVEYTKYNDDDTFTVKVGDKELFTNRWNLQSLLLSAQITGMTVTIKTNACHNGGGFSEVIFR

[8] = tested on: crude toxin preparation from C. sordellii; assay type: cell-based
[9] = at the lowest concentration of 0.03 μM, toxin B 1.2-100 ng/ml

Substance | C. difficile Mass (C. difficile ATCC 9689 [1]) | Toxin (C. difficile ATCC 9689 [2]) [ng/mL] | also measured
Tyr-Phe | 0.0559 OD (750 nm) | <0.122 | –
Tyr-Tyr | 0.0415 OD (750 nm) | 174 | –
Val-Asp | 0.0469 OD (750 nm) | 225 | –
Val-Glu | 0.0481 OD (750 nm) | 178 | –
Val-Pro | 0.0425 OD (750 nm) | 183 | –
Val-Ser | 0.0455 OD (750 nm) | <0.122 | –
Val-Tyr-Val | 0.0382 OD (750 nm) | 296 | –
[dA]-Gly-Gly | 0.0538 OD (750 nm) | 515 | –
[βAla]-Gly | 0.0389 OD (750 nm) | 1547 | –
[βAla]-His | 0.0473 OD (750 nm) | 8265 | –
poly-D-lysine | – | – | Toxin B inactivation ([3]; 50 ng/ml C. difficile Toxin B): effectively inactivates
poly-D-lysine (peptide) | – | – | concentration at which significant toxin inactivation begins [4]: 1 µg/mL
poly-L-lysine | – | – | Toxin B inactivation ([3]; 50 ng/ml C. difficile Toxin B): effectively inactivates
poly-L-lysine (peptide) | – | – | concentration at which significant toxin inactivation begins [4]: 1 µg/mL
polyarginine | – | – | Reduction of measured toxin B [3]: dramatically reduce; Toxin B inactivation [3, 9]: completely inactivated
polylysine | – | – | Concentration at which significant toxin inactivation begins ([3]; 50 ng/ml C. difficile Toxin B, dose response 0.042-42.5 ug/ml): approximately 1 ug/ml
protamine | – | – | Toxin inactivation [5]: did not inactivate; Toxin inactivation (Shiga toxin 2): did not inactivate; Toxin inactivation [6]: did not inactivate; Toxin inactivation [7]: did not inactivate; Toxin inactivation (Shiga toxin 1): did not inactivate; Toxin inactivation [8]: did not inactivate; Reduction of measured toxin B [3]: dramatically reduce; Toxin B inactivation [3, 9]: completely inactivated; Optimal concentration against toxin B ([3]; double dilution experiment, FIG. 4): 0.26 µM
γ-D-Glu-Gly | 0.0519 OD (750 nm) | 10122 | –
